Source: the supplement of paper PMC10307832

Tests used:
Assay in all cases: relative viability (nuclei count vs DMSO), 5 days (fraction); higher = more cells survive
NCI-H1299 = test system: NCI-H1299
In short: (§1)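 The day after seeding in 1536-well plates, lung cancer cell lines were treated by pin tool with a single drug, or with a fixed anchor-drug dose together with five library-drug doses (not always all listed) in √10 steps. After 5 days, a combined fix-and-stain solution (final 0.05% Triton X-100, 1% formaldehyde, 1 ug/ml Hoechst) was added. Nuclei counted on 4× images gave relative viability as treated counts over vehicle counts, reported as the median of duplicate plates.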

UMC-11 = test system: UMC-11
In short: as §1

NCI-H1395 = test system: NCI-H1395
In short: as §1

HCC-44 = test system: HCC-44
In short: as §1

IA-LM = test system: IA-LM
In short: as §1

EKVX = test system: EKVX
In short: as §1

NCI-H1755 = test system: NCI-H1755
In short: as §1

EBC-1 = test system: EBC-1
In short: as §1

NCI-H1703 = test system: NCI-H1703
In short: as §1

Calu-6 = test system: Calu-6
In short: as §1

LCLC-103H = test system: LCLC-103H
In short: as §1

A549 = test system: A549
In short: as §1

HCC-15 = test system: HCC-15
In short: as §1

O=c1cc(N2CCOCC2)oc2c(-c3cccc4c3sc3ccccc34)cccc12 + C[C@]1(O)C[C@@H](c2nc(-c3ccc4ccc(-c5ccccc5)nc4c3)c3c(N)nccn32)C1 [Linsitinib] (partner 1 µM) gave a relative viability (NCI-H1299; first compound 0.01 µM) of 0.972, a relative viability (NCI-H1299; first compound 0.03162 µM) of 0.937 and a relative viability (NCI-H1299; first compound 0.1 µM) of 0.945. For the same compound, the relative viability (NCI-H1299; first compound 0.3162 µM) was 1.01, the relative viability (NCI-H1299; first compound 1 µM) was 0.995 and the relative viability (UMC-11; first compound 0.01 µM) was 1.07. It also gave a relative viability (UMC-11; first compound 0.03162 µM) of 1.03, a relative viability (UMC-11; first compound 0.1 µM) of 1.01 and a relative viability (UMC-11; first compound 0.3162 µM) of 1.02. For the same compound, the relative viability (UMC-11; first compound 1 µM) was 1.06, the relative viability (NCI-H1395; first compound 0.01 µM) was 1.21 and the relative viability (NCI-H1395; first compound 0.03162 µM) was 1.11. The relative viability (NCI-H1395; first compound 0.1 µM) was 1.03, the relative viability (NCI-H1395; first compound 0.3162 µM) was 1.12 and the relative viability (NCI-H1395; first compound 1 µM) was 1.2. It also gave a relative viability (HCC-44; first compound 0.01 µM) of 0.748, a relative viability (HCC-44; first compound 0.03162 µM) of 0.661 and a relative viability (HCC-44; first compound 0.1 µM) of 0.655. It also gave a relative viability (HCC-44; first compound 0.3162 µM) of 0.684, a relative viability (HCC-44; first compound 1 µM) of 0.584 and a relative viability (IA-LM; first compound 0.01 µM) of 0.667. The relative viability (IA-LM; first compound 0.03162 µM) was 0.684, the relative viability (IA-LM; first compound 0.1 µM) was 0.698 and the relative viability (IA-LM; first compound 0.3162 µM) was 0.506. For the same compound, the relative viability (IA-LM; first compound 1 µM) was 0.589, the relative viability (EKVX; first compound 0.01 µM) was 0.989 and the relative viability (EKVX; first compound 0.03162 µM) was 0.907. It also gave a relative viability (EKVX; first compound 0.1 µM) of 1.19, a relative viability (EKVX; first compound 0.3162 µM) of 0.956 and a relative viability (EKVX; first compound 1 µM) of 1.01. For the same compound, the relative viability (NCI-H1755; first compound 0.01 µM) was 1.04, the relative viability (NCI-H1755; first compound 0.03162 µM) was 0.98 and the relative viability (NCI-H1755; first compound 0.1 µM) was 1.03. It also gave a relative viability (NCI-H1755; first compound 0.3162 µM) of 1.03, a relative viability (NCI-H1755; first compound 1 µM) of 1.01 and a relative viability (EBC-1; first compound 0.01 µM) of 0.973. The relative viability (EBC-1; first compound 0.03162 µM) was 0.942, the relative viability (EBC-1; first compound 0.1 µM) was 0.835 and the relative viability (EBC-1; first compound 0.3162 µM) was 1.06. For the same compound, the relative viability (EBC-1; first compound 1 µM) was 0.993, the relative viability (NCI-H1703; first compound 0.01 µM) was 0.786 and the relative viability (NCI-H1703; first compound 0.03162 µM) was 0.991. For the same compound, the relative viability (NCI-H1703; first compound 0.1 µM) was 0.684, the relative viability (NCI-H1703; first compound 0.3162 µM) was 0.641 and the relative viability (NCI-H1703; first compound 1 µM) was 0.919. For the same compound, the relative viability (Calu-6; first compound 0.01 µM) was 0.963, the relative viability (Calu-6; first compound 0.03162 µM) was 0.935 and the relative viability (Calu-6; first compound 0.1 µM) was 1.06. The relative viability (Calu-6; first compound 0.3162 µM) was 0.944, the relative viability (Calu-6; first compound 1 µM) was 0.983 and the relative viability (LCLC-103H; first compound 0.01 µM) was 1.09. It also gave a relative viability (LCLC-103H; first compound 0.03162 µM) of 1.04, a relative viability (LCLC-103H; first compound 0.1 µM) of 1.03 and a relative viability (LCLC-103H; first compound 0.3162 µM) of 1.08. It also gave a relative viability (LCLC-103H; first compound 1 µM) of 0.978, a relative viability (A549; first compound 0.01 µM) of 0.568 and a relative viability (A549; first compound 0.03162 µM) of 0.613. The relative viability (A549; first compound 0.1 µM) was 0.577, the relative viability (A549; first compound 0.3162 µM) was 0.663 and the relative viability (A549; first compound 1 µM) was 0.592. It also gave a relative viability (HCC-15; first compound 0.01 µM) of 0.786, a relative viability (HCC-15; first compound 0.03162 µM) of 0.869 and a relative viability (HCC-15; first compound 0.1 µM) of 0.936. For the same compound, the relative viability (HCC-15; first compound 0.3162 µM) was 0.902 and the relative viability (HCC-15; first compound 1 µM) was 0.847.

CCN(CC)CCCCNc1ncc2cc(-c3cc(OC)cc(OC)c3)c(NC(=O)NC(C)(C)C)nc2n1 + C[C@]1(O)C[C@@H](c2nc(-c3ccc4ccc(-c5ccccc5)nc4c3)c3c(N)nccn32)C1 [Linsitinib] (partner 1 µM) gave a relative viability (NCI-H1299; first compound 0.01 µM) of 1.01, a relative viability (NCI-H1299; first compound 0.03162 µM) of 1.01 and a relative viability (NCI-H1299; first compound 0.1 µM) of 0.986. The relative viability (NCI-H1299; first compound 0.3162 µM) was 1.09, the relative viability (NCI-H1299; first compound 1 µM) was 0.944 and the relative viability (UMC-11; first compound 0.01 µM) was 1.25. For the same compound, the relative viability (UMC-11; first compound 0.03162 µM) was 1.02, the relative viability (UMC-11; first compound 0.1 µM) was 1.29 and the relative viability (UMC-11; first compound 0.3162 µM) was 1.21. It also gave a relative viability (UMC-11; first compound 1 µM) of 0.99, a relative viability (NCI-H1395; first compound 0.03162 µM) of 1.02 and a relative viability (NCI-H1395; first compound 0.1 µM) of 0.935. It also gave a relative viability (NCI-H1395; first compound 0.3162 µM) of 1.04, a relative viability (NCI-H1395; first compound 1 µM) of 0.671 and a relative viability (HCC-44; first compound 0.01 µM) of 0.752. It also gave a relative viability (HCC-44; first compound 0.03162 µM) of 0.709, a relative viability (HCC-44; first compound 0.1 µM) of 0.749 and a relative viability (HCC-44; first compound 0.3162 µM) of 0.684. The relative viability (HCC-44; first compound 1 µM) was 0.614, the relative viability (IA-LM; first compound 0.01 µM) was 0.757 and the relative viability (IA-LM; first compound 0.03162 µM) was 0.748. The relative viability (IA-LM; first compound 0.1 µM) was 0.621, the relative viability (IA-LM; first compound 0.3162 µM) was 0.78 and the relative viability (IA-LM; first compound 1 µM) was 0.506. The relative viability (EKVX; first compound 0.01 µM) was 1.11, the relative viability (EKVX; first compound 0.03162 µM) was 1.1 and the relative viability (EKVX; first compound 0.1 µM) was 0.93. The relative viability (EKVX; first compound 0.3162 µM) was 1.09, the relative viability (EKVX; first compound 1 µM) was 0.883 and the relative viability (NCI-H1755; first compound 0.01 µM) was 1.08. It also gave a relative viability (NCI-H1755; first compound 0.03162 µM) of 0.979, a relative viability (NCI-H1755; first compound 0.1 µM) of 0.995 and a relative viability (NCI-H1755; first compound 0.3162 µM) of 1.08. It also gave a relative viability (NCI-H1755; first compound 1 µM) of 0.925, a relative viability (EBC-1; first compound 0.01 µM) of 0.885 and a relative viability (EBC-1; first compound 0.03162 µM) of 1.04. The relative viability (EBC-1; first compound 0.1 µM) was 0.994, the relative viability (EBC-1; first compound 0.3162 µM) was 1.06 and the relative viability (EBC-1; first compound 1 µM) was 0.879. It also gave a relative viability (NCI-H1703; first compound 0.01 µM) of 1.02, a relative viability (NCI-H1703; first compound 0.03162 µM) of 0.63 and a relative viability (NCI-H1703; first compound 0.1 µM) of 0.792. It also gave a relative viability (NCI-H1703; first compound 0.3162 µM) of 0.959, a relative viability (NCI-H1703; first compound 1 µM) of 0.967 and a relative viability (Calu-6; first compound 0.03162 µM) of 0.946. The relative viability (Calu-6; first compound 0.1 µM) was 0.969, the relative viability (Calu-6; first compound 0.3162 µM) was 0.898 and the relative viability (Calu-6; first compound 1 µM) was 1.02. The relative viability (LCLC-103H; first compound 0.01 µM) was 1.17, the relative viability (LCLC-103H; first compound 0.03162 µM) was 1.11 and the relative viability (LCLC-103H; first compound 0.1 µM) was 1.2. The relative viability (LCLC-103H; first compound 0.3162 µM) was 1.09, the relative viability (LCLC-103H; first compound 1 µM) was 1.15 and the relative viability (A549; first compound 0.01 µM) was 0.623. It also gave a relative viability (A549; first compound 0.03162 µM) of 0.626, a relative viability (A549; first compound 0.1 µM) of 0.563 and a relative viability (A549; first compound 0.3162 µM) of 0.636. The relative viability (A549; first compound 1 µM) was 0.595, the relative viability (HCC-15; first compound 0.01 µM) was 1.04 and the relative viability (HCC-15; first compound 0.03162 µM) was 0.875. The relative viability (HCC-15; first compound 0.1 µM) was 0.951, the relative viability (HCC-15; first compound 0.3162 µM) was 0.925 and the relative viability (HCC-15; first compound 1 µM) was 0.872.
